Legend:
[1] = Acute toxicity, intravenous, male mice; conditions: mouse, in vivo, read-out: LD50 (median lethal dose)
From the text: The acute toxicity of the compounds of the invention administered intravenously was studied in male mice.

guinea-pigs = assay: Gastric emptying measured by x-ray localization of barium sulfate spheroids in guinea pigs after i.p. administration; type: in vivo, guinea pig; conditions: for Gastric emptying (percentage of spheroids leaving the stomach) after 1 hour / Gastric emptying (percentage of spheroids leaving the stomach) after 2 hours: 1 mg/kg i.p.; for Gastric emptying (percentage of spheroids leaving the stomach) after 1 hour / Gastric emptying (percentage of spheroids leaving the stomach) after 2 hours / Gastric emptying after 2 hours: guinea-pigs; for Gastric emptying (percentage of spheroids leaving the stomach) after 2 hours: control group 28%; for Gastric emptying at 1 mg/kg compared with metoclopramide 5 mg/kg: 1 mg/kg of compound vs 5 mg/kg of metoclopramide; for Gastric emptying after 2 hours: 5 mg/kg, control group 24.8%
Protocol: Feeding of the animals were interrupted 14 hours before measurement of gastric emptying. The experimentation was conducted under weak illumination, with the least possible noise and disturbances, solely by experimentors having daily contact with the guinea pigs and having sufficient initial training in handling the animals. The animals were then subjected to minimal stress.
The measurement of gastric emptying was carried out by x-ray localization (50 KV, 30 mA, 0.5-0.8 s.), on Kodak plates (NS-2T, 13×18 cm) of barium sulfate spheroids (approximately 30, 1 mm in diameter) coated with polystyrene, which the guinea pigs were made to swallow by placing them in the back of the throat, in a solution of 0.2 ml of 1% carboxymethylcellulose with 0.05 ml of glycerine, so as to initiate rapid and voluntary deglutition.
The passage of the spheroids was followed for 3 to 4 hours, the animals being placed in their customary cages for that time and taken out only 5 minutes before x-ray exposure (at intervals of 30-60 minutes). During the x-ray procedure, the animals were placed in individual holding cages, keeping them comfortably in a stable position, the cage being sufficiently sized (33×15 cm and 13 cm high) so as to comfortably maintain a 450 to 550 gram guinea pig between the padded walls, the animal being trained to enter the cage and remain there tranquilly and without stress.
Gastric emptying was measured by the number of spheroids leaving the stomach. For each dose of product studied, 6 guinea pigs were used, and the responses were compared to those of guinea pigs receiving the appropriate vehicle.
Compound (I) was studied at doses of 1 mg/kg and 0.01 mg/kg, Compounds (II) to (V) were studied at a dose of 1 mg/kg, the compounds (VI) to (VIII) at a dose of 5 mg/kg. Metoclopramide was evaluated at doses of 1 mg/kg and 5 mg/kg.
The results are recorded in graphic form in FIG. 1. The compounds according to the invention and metoclopromide were dissolved in distilled water and the doses are expressed as base.
This emptying is expressed, in FIG. 1 and Table 1, as a percentage of spheroids leaving the stomach.

SMILES	LD50 [1] [mg/kg]	Gastric emptying (percentage of spheroids leaving the stomach) after 1 hour (guinea-pigs) [%]	Gastric emptying (percentage of spheroids leaving the stomach) after 2 hours (guinea-pigs) [%]	Gastric emptying at 1 mg/kg compared with metoclopramide 5 mg/kg (guinea-pigs)	Gastric emptying after 2 hours (guinea-pigs) [%]	Effect on gastric emptying (in words) (guinea-pigs; intraperitoneal, immobilized guinea-pigs, FIG. 1)
CCN(CC)CCNC(=O)c1cc(Cl)c(NC2=NCCN2)cc1OC [Compound I, N-[2-(diethylamino)ethyl]-2-methoxy-4-[(4,5-dihydro-1H-imidazol-2-yl)-amino]-5-chlorobenzamide]	12.8 to 14.4	24	63	a result equivalent to the use of 5 mg/kg of metoclopramide	–	–
CCN(CC)CCNC(=O)c1cc(Cl)c(NC2=NCCS2)cc1OC [Compound II, N-[2-(diethylamino)ethyl]-2-methoxy-4-[(4,5-dihydro-2-thiazolyl)amino]-5-chlorobenzamide]	40.6 to 48.7	12.5	60	–	–	–
CCN(CC)CCNC(=O)c1cc(Cl)c(NC2=NCCO2)cc1OC [Compound III, N-[2-(diethylamino)ethyl]-2-methoxy-4-[(4,5-dihydro-2-oxazolyl)amino]-5-chlorobenzamide]	91 to 116	20	57	–	–	–
CNC(=O)c1cc(Cl)c(NC2=NCCN2)cc1OC [Compound IV, N-methyl-2-methoxy-4-[(4,5-dihydro-1H-imidazol-2-yl)amino] -5-chlorobenzamide]	95.8 to 138	38	62	a result equivalent to the use of 5 mg/kg of metoclopramide	–	–
CCN(CC)CCNC(=O)c1cc(Cl)c(NC2=NCCN2)cc1O [Compound V, N-[2-(diethylamino)ethyl]-2-hydroxy-4-[(4,5-dihydro-1H-imidazol-2-yl)-amino]-5-chlorobenzamide]	65.7 to 76.7	32	55	–	–	–
COc1cc(NC2=NCCN2)c(Cl)cc1C(=O)NC(C)C [Compound VII, N-isopropyl-2-methoxy-4-[(4,5-dihydro-1H-imidazol-2-yl)amino]-5-chlorobenzamide]	–	–	–	–	46.2	–
C=CCNC(=O)c1cc(Cl)c(NC2=NCCN2)cc1OC [Compound VIII, N-allyl-2-methoxy-4-[(4,5-dihydro-1H-imidazol-2-yl)amino]-5-chlorobenzamide]	–	–	–	–	47.4	–
CCN(CC)CCNC(=O)c1cc(Cl)c(N)cc1OC [metoclopramide, N-(2-diethylaminoethyl)-2-methoxy-4-amino-5-chlorobenzamide, reference compound]	25.4 to 37.9	16	39	–	–	an increase in gastric emptying

Source: US5116857A, “Method of increasing gastrointestinal motility with substituted benzamides” (Laboratoires Delagrange Div. Societe d'Applications …, priority 1988, dated 1992)
